Results reported in a melting point compilation (Tetko et al.).

Row | SMILES | melting point [°C]
1 | NC(=NO)c1ccc(Cl)cc1Cl | 149 to 151
2 | COc1cc(OC)c(/C=C/C(c2ccc(OC)c(NC(=O)COC(C)=O)c2)S(=O)(=O)C(/C=C/c2c(OC)cc(OC)cc2OC)c2ccc(OC)c(NC(=O)COC(C)=O)c2)c(OC)c1 (stereo not given) | 192 to 194
3 | O=c1[nH]c(=Cc2ccc(OCc3ccccc3)cn2)c(=O)[nH]c1=Cc1ccc(OCc2ccccc2)cn1 | 283 to 285
4 | CC1N=C(c2ccccc2)c2cc(Cl)ccc2-n2c1nnc2C(CN(C)C)c1ccccc1 (stereo not given) | 200 to 203
5 | O=P(O)(C(F)(F)C(F)(F)C(F)(F)C(F)(F)C(F)(C(F)(F)F)C(F)(F)F)C(F)(F)C(F)(F)C(F)(F)C(F)(F)C(F)(C(F)(F)F)C(F)(F)F | 91 to 94
6 | O=C(O)Cc1cccc(-c2cc(C(=O)CCCCC(=O)c3ccc(OC4OC(CO)C(O)C(O)C4O)c(-c4cccc(CC(=O)O)c4)c3)ccc2OC2OC(CO)C(O)C(O)C2O)c1 (stereo not given) | 127 to 129
7 | CC(=O)ON=C(N)c1ccc(CN(CCCCNC(=O)OC(C)(C)C)C(=O)CNC(=O)CN(CCc2ccccc2)S(=O)(=O)c2ccc(Cl)c(C)c2Cl)cc1 | 100
8 | CCCCN(CCCC)c1ccc(C=Cc2ccc(C=CC3=C(C#N)C(=C(C#N)C#N)OC3(C)C(F)(F)F)s2)c(O[Si](c2ccccc2)(c2ccccc2)C(C)(C)C)c1 (stereo not given) | 186 to 187
9 | CCCCCCCCCCCCCCCCCC(=O)OCC=C(C)CCC=C(C)CCC=C(C)CCC=C(C)CCC=C(C)CCC=C(C)CCC=C(C)CCC=C(C)CCC=C(C)C | 36 to 37
10 | CC(=O)OCC(CNC(=O)c1c(I)c(C(=O)NCC(COC(C)=O)OC(C)=O)c(I)c(N2C(=O)COCC2COC(C)=O)c1I)OC(C)=O (stereo not given) | 210 to 212
11 | O=P(O)(O)CN(CP(=O)(O)O)CP(=O)(O)O | 215
12 | COc1cc(COc2nn(-c3ccccc3)cc2/C=C/c2nc(N3CCN(C(=O)OC(C)(C)C)CC3)sc2C)ccc1OCc1nc(-c2ccc(CC(=O)O)cc2)oc1C | 119 to 120
13 | Cc1ccc2c(c1)CC(=O)N2c1c(F)cc(F)cc1Cl | 137 to 140
14 | CN1C(=O)C(Br)=C(c2cn(C3OC(COCc4ccccc4)C(OCc4ccccc4)C(OCc4ccccc4)C3OCc3ccccc3)c3ccccc23)C1=O (stereo not given) | 55
15 | N=S(=O)(C=Cc1ccccc1N)c1ccccc1 (stereo not given) | 95 to 96
16 | CC[C@H](C)[C@H](NC(=O)N(C)Cc1ccccn1)C(=O)NC(Cc1ccccc1)C(O)C(O)C(Cc1ccccc1)NC(=O)[C@@H](NC(=O)N(C)Cc1ccccn1)[C@@H](C)CC (stereo not given in full) | 160 to 161
17 | CS(=O)(=O)c1ccc(-c2nc(C(F)(F)F)nc(N3CCN(C(=O)c4cccs4)CC3)c2-c2ccccc2)cc1 | 189 to 194
18 | CCCCC(CC)CN1C(=O)C(=c2[nH]c(=c3[nH]c(=C4C(=O)N(CC(CC)CCCC)C(=O)N(CC(CC)CCCC)C4=O)c4ccccc34)c3ccccc23)C(=O)N(CC(CC)CCCC)C1=O (stereo not given) | 198 to 206
19 | COc1cc(OC)c(C=CC(c2ccc(OC)c(CC(=O)O)c2)(S(N)(=O)=O)S(=O)(=O)C(C=Cc2c(OC)cc(OC)cc2OC)(c2ccc(OC)c(CC(=O)O)c2)S(N)(=O)=O)c(OC)c1 (stereo not given) | 180 to 184
20 | CC(C)(C)c1cc(C(C)(C)C)c(OP2OP(Oc3c(C(C)(C)C)cc(C(C)(C)C)cc3C(C)(C)C)OP(Oc3c(C(C)(C)C)cc(C(C)(C)C)cc3C(C)(C)C)O2)c(C(C)(C)C)c1 (stereo not given) | 226 to 244
21 | COc1cc(OC)c(/C=C/C(c2ccc(OC)c(NC(=O)C(C)(C)O)c2)S(=O)(=O)C(/C=C/c2c(OC)cc(OC)cc2OC)c2ccc(OC)c(NC(=O)C(C)(C)O)c2)c(OC)c1 (stereo not given) | 198 to 199
22 | CCCC(=O)C(=CNc1ccc(COC(=O)c2ccccc2)cc1)C(=O)OCC | 73 to 75
23 | CCOc1cc(C(=O)N2CCC(CCN3CCC(C(=O)c4nc5ccccc5n4Cc4ccc(F)cc4)CC3)(c3ccc(OC)c(OC)c3)C2)cc(OCC)c1OCC (stereo not given) | 139 to 141
24 | CC(C)(C)c1cc(C(C)(C)C)c2op(Op3oc4c(C(C)(C)C)cc(C(C)(C)C)cc4c4cc(C(C)(C)C)cc(C(C)(C)C)c4o3)oc3c(C(C)(C)C)cc(C(C)(C)C)cc3c2c1 | 269
25 | CC(NC(=O)C(CC(C(=O)O)C(C)(C)C)NC(=O)C(CC(C(=O)O)C(C)(C)C)NC(=O)C(NC(=O)OCc1ccccc1)C(C)C)C(=O)NC(CC(C(=O)O)C(C)(C)C)C(=O)NC(CC(N)=O)C(=O)OC(C)(C)C (stereo not given) | 217 to 219
26 | CC(=O)Nc1cc(C(=O)NC2OC(COC(C)=O)C(OC3OC(COC(C)=O)C(OC(C)=O)C(OC(C)=O)C3OC(C)=O)C(OC(C)=O)C2OC(C)=O)ccc1Cl (stereo not given) | 122 to 124
27 | CC(C)(C)c1cc(-c2cc(C(C)(C)C)cc(C(C)(C)C)c2Op2oc3c(C(C)(C)C)cc(C(C)(C)C)cc3c3cc(C(C)(C)C)cc(C(C)(C)C)c3o2)c(O)c(C(C)(C)C)c1 | 245 to 250
28 | CCOC(=O)c1c(I)c(NS(=O)(=O)c2cccc3c(N(C)C)cccc23)c(I)c(N(CC)C(C)=O)c1I | 238 to 240
29 | O=C(O)c1ccc([Si](CCC(F)(F)C(F)(F)C(F)(F)C(F)(F)C(F)(F)C(F)(F)C(F)(F)C(F)(F)C(F)(F)C(F)(F)F)(CCC(F)(F)C(F)(F)C(F)(F)C(F)(F)C(F)(F)C(F)(F)C(F)(F)C(F)(F)C(F)(F)C(F)(F)F)CCC(F)(F)C(F)(F)C(F)(F)C(F)(F)C(F)(F)C(F)(F)C(F)(F)C(F)(F)C(F)(F)C(F)(F)F)cc1 | 134 to 136
30 | CCC(C)C=O (stereo not given) | -60
